SMILES strings stand for the structures.

This assay addresses T1, Recombinant human mPGES-1 (Homo sapiens, UniProt O14684).
T1 construct: made in house; host or cells: CHO cells
T1 sequence (O14684 1-152): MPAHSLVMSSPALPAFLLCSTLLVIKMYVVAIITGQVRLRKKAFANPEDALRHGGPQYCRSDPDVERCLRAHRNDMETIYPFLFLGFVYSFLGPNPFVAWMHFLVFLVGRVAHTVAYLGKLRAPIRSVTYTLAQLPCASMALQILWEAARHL
The assay can be described thus: In-vitro mPGES-1 inhibitor screening (inhibition of PGE2 formation from PGH2, HTRF detection). Type of assay: biochemical. The conditions noted are these: for inhibition at 1 µM: 1 μM test compound, read-out: Percentage inhibition at 1 μM; for inhibition at 1 µM / inhibition at 10 µM: crude microsomal fraction, 15 μM PGH2; for inhibition at 10 µM: 10 μM test compound, read-out: Percentage inhibition at 10 μM; for IC50: class symbol, concentration response curve. In outline: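 PGE2 formation measured by HTRF after 1 min reaction with 15 μM PGH2, stopped with stannous chloride (11 mg/ml). Beforehand, compound and crude CHO-expressed human mPGES-1 microsomes (40-60 μg/mL) sat 10 min in phosphate/EDTA buffer with 2.5 mM GSH (0.5% DMSO final). IC50 fitted from concentration-response of % inhibition.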

As for `CC(C)(C)C(=O)NCc1ccc(Cl)c(C(=O)Nc2cccc3c(O[C@H]4CC[C@@H](C(F)(F)F)CC4)nccc23)c1` [Example-47, 2-Chloro-5-(pivalamidomethyl)-N-(1-(((1s,4s)-4-(trifluoromethyl)cyclohexyl)oxy)isoquinolin-5-yl)benzamide], the inhibition at 1 µM amounted to 85.1%, the inhibition at 10 µM came to 97.7% and the IC50 was greater than 100 nM.
With `CC(C)(C)C(=O)NCc1ccc(Cl)c(C(=O)Nc2cccc3c(Oc4ccc(F)c(C(F)(F)F)c4)nccc23)c1` [Example-48, 2-Chloro-N-(1-(4-fluoro-3-(trifluoromethyl)phenoxy)isoquinolin-5-yl)-5-(pivalamidomethyl)benzamide], the inhibition at 1 µM worked out at 91.1%, the inhibition at 10 µM came to 95.2% and the half-maximal inhibitory concentration (IC50) was less than 50 nM.
`COc1c(CNC(=O)C(C)(C)C)ccc(Cl)c1C(=O)Nc1cccc2c(Oc3cccc(C(F)(F)F)c3)ncnc12` [Example-49, 6-Chloro-2-methoxy-3-(pivalamidomethyl)-N-(4-(3-(trifluoromethyl)phenoxy)quinazolin-8-yl)benzamide]: the inhibition at 1 µM came to 91.9%, the inhibition at 10 µM was 91% and the IC50 is less than 50 nM.
On to `CC(C)(C)C(=O)NCc1ccc(Cl)c(C(=O)Nc2cccc3c(O[C@H]4CC[C@H](C(F)(F)F)CC4)nccc23)c1F` [Example-50, 6-Chloro-2-fluoro-3-(pivalamidomethyl)-N-(1-(((1r,4r)-4-(trifluoromethyl)cyclohexyl)oxy)isoquinolin-5-yl)benzamide], for which the inhibition at 1 µM came out at 99.2%, the inhibition at 10 µM worked out at 99.6% and the IC50 was less than 50 nM.
On the same counts, the results for `CC(C)(C)C(=O)NCc1ccc(Cl)c(C(=O)Nc2cccc3c(Oc4ccc(F)c(C(F)(F)F)c4)ccnc23)c1F` [Example-51, 6-Chloro-2-fluoro-N-(4-(4-fluoro-3-(trifluoromethyl)phenoxy)quinolin-8-yl)-3-(pivalamidomethyl)benzamide] are 99.3%, 99.7% and less than 50 nM.
As for `CC(C)(C)C(=O)NCc1ccc(Cl)c(C(=O)Nc2cccc3c(Oc4ccc(F)c(C(F)(F)F)c4)ncnc23)c1F` [Example-52, 6-Chloro-2-fluoro-N-(4-(4-fluoro-3-(trifluoromethyl)phenoxy)quinazolin-8-yl)-3-(pivalamidomethyl)benzamide], the inhibition at 1 µM is 94.5%, the inhibition at 10 µM worked out at 95.3% and the IC50 was less than 50 nM.
With `CC(C)(C)C(=O)NCc1ccc(Cl)c(C(=O)Nc2cccc3c(Oc4ccc(C(F)(F)F)cc4)ccnc23)c1F` [Example-53, 6-Chloro-2-fluoro-3-(pivalamidomethyl)-N-(4-(4-(trifluoromethyl)phenoxy)quinolin-8-yl)benzamide], the inhibition at 1 µM is 98.3%, the inhibition at 10 µM was found to be 98.3% and the IC50 was less than 50 nM.
For the molecule `Cc1nc(NC2CCC(C)(C)CC2)c2cccc(NC(=O)c3c(Cl)ccc(CNC(=O)C(C)(C)C)c3F)c2n1` [Example-54, 6-Chloro-N-(4-((4,4-dimethylcyclohexyl)amino)-2-methylquinazolin-8-yl)-2-fluoro-3-(pivalamidomethyl)benzamide], the inhibition at 1 µM stood at 98.2%, the inhibition at 10 µM stood at 97.3% and the half-inhibitory concentration (IC50) was less than 50 nM.
`CC(C)(C)C(=O)NCc1ccc(Cl)c(C(=O)Nc2cccc3cccnc23)c1F` [Example-55, 6-Chloro-2-fluoro-3-(pivalamidomethyl)-N-(quinolin-8-yl)benzamide]: the inhibition at 1 µM was 94.1%, the inhibition at 10 µM worked out at 99.8% and the IC50 is less than 50 nM.
On the same counts, the results for `Cc1nc(Oc2cccc(C(F)(F)F)c2)c2cccc(NC(=O)c3c(Cl)ccc(CNC(=O)C(C)(C)C)c3F)c2n1` [Example-56, 6-Chloro-2-fluoro-N-(2-methyl-4-(3-(trifluoromethyl)phenoxy)quinazolin-8-yl)-3-(pivalamidomethyl)benzamide] are 97.9%, 99.3% and 50 to 100 nM.
On the same counts, the results for `Cc1nc(NC(C)C)c2cccc(NC(=O)c3c(Cl)ccc(CNC(=O)C(C)(C)C)c3F)c2n1` [Example-57, 6-Chloro-2-fluoro-N-(4-(isopropylamino)-2-methylquinazolin-8-yl)-3-(pivalamidomethyl)benzamide] are 74.1%, 96% and greater than 100 nM.
As for `Cc1nc(N2CCOCC2)c2cccc(NC(=O)c3c(Cl)ccc(CNC(=O)C(C)(C)C)c3F)c2n1` [Example-58, 6-Chloro-2-fluoro-N-(2-methyl-4-morpholinoquinazolin-8-yl)-3-(pivalamidomethyl)benzamide], the inhibition at 1 µM was 51.3% and the inhibition at 10 µM is 93.4%.
As for `CC(C)Oc1ncnc2c(NC(=O)c3c(Cl)ccc(CNC(=O)C(C)(C)C)c3F)cccc12` [Example-59, 6-Chloro-2-fluoro-N-(4-isopropoxyquinazolin-8-yl)-3-(pivalamidomethyl)benzamide], the inhibition at 1 µM was 97.5%, the inhibition at 10 µM is 99.4% and the IC50 is less than 50 nM.
Regarding `Cc1nc(NC2CCC(F)(F)CC2)c2cccc(NC(=O)c3c(Cl)ccc(CNC(=O)C(C)(C)C)c3F)c2n1` [Example-60, 6-Chloro-N-(4-((4,4-difluorocyclohexyl)amino)-2-methylquinazolin-8-yl)-2-fluoro-3-(pivalamidomethyl)benzamide], the inhibition at 1 µM is 86.5%, the inhibition at 10 µM came out at 91.7% and the half-maximal inhibitory concentration (IC50) is greater than 100 nM.
Turning to `CN(C)c1ncnc2c(NC(=O)c3c(Cl)ccc(CNC(=O)C(C)(C)C)c3F)cccc12` [Example-61, 6-Chloro-N-(4-(dimethylamino)quinazolin-8-yl)-2-fluoro-3-(pivalamidomethyl)benzamide], the inhibition at 1 µM came out at 88.3%, the inhibition at 10 µM turned out to be 97.2% and the IC50 was greater than 100 nM.
For `CC(C)(C)Nc1ncnc2c(NC(=O)c3c(Cl)ccc(CNC(=O)C(C)(C)C)c3F)cccc12` [Example-62, N-(4-(tert-Butylamino)quinazolin-8-yl)-6-chloro-2-fluoro-3-(pivalamidomethyl)benzamide] the same measures were 97.3%, 97.8% and less than 50 nM.
On the same counts, the results for `CCOc1ccnc2c(NC(=O)c3c(Cl)ccc(CNC(=O)C(C)(C)C)c3F)cccc12` [Example-63, 6-Chloro-N-(4-ethoxyquinolin-8-yl)-2-fluoro-3-(pivalamidomethyl)benzamide] are 90.8%, 94.7% and less than 50 nM.
On the same counts, the results for `CC(C)Nc1ncnc2c(NC(=O)c3c(Cl)ccc(CNC(=O)C(C)(C)C)c3F)cccc12` [Example-64, 6-Chloro-2-fluoro-N-(4-(isopropylamino)quinazolin-8-yl)-3-(pivalamidomethyl)benzamide] are 90.6%, 94.5% and less than 50 nM.
Turning to `Cc1nc(NC(C)(C)C)c2cccc(NC(=O)c3c(Cl)ccc(CNC(=O)C(C)(C)C)c3F)c2n1` [Example-65, N-(4-(tert-Butylamino)-2-methylquinazolin-8-yl)-6-chloro-2-fluoro-3-(pivalamidomethyl)benzamide], the inhibition at 1 µM is 94%, the inhibition at 10 µM is 93% and the 50% inhibitory concentration (IC50) was less than 50 nM.
